# Data taken from US7767659B2, “Synthesis of naturally occurring ecteinascidins and related compounds” (Pharma Mar, S.A., priority 2002, dated 2010).
# Columns and labels:
# DU-145 = assay: Inhibition of cells growth by colorimetric assay (SRB); settings: Homo sapiens, DU-145, 48 h; for GI50: read-out: DU145 GI50; for CC50: read-out: DU145 LC50; for IC (TGI): read-out: DU145 TGI
# Protocol: (§1) This form of the assay employs 96 well cell culture microplates of 9 mm diameter (Faircloth, 1988; Mosmann, 1983). Most of the cell lines are obtained from American Type Culture Collection (ATCC) derived from different human cancer types.
# (§2) Cells are maintained in RPMI 1640 10% FBS, supplemented with 0.1 g/l penicillin and 0.1 g/l streptomycin sulfate and then incubated at 37° C., 5% CO2 and 98% humidity. For the experiments, cells were harvested from subconfluent cultures using trypsin and resuspended in fresh medium before plating.
# (§3) Cells are seeded in 96 well microtiter plates, at 5×10^3 cells per well in aliquots of 195 μl medium, and they are allowed to attach to the plate surface by growing in drug free medium for 18 hours. Afterward, samples are added in aliquots of 5 μl in a ranging from 10 to 10^−8 μg/ml, dissolved in DMSO/EtOH/PBS (0.5:0.5:99). After 48 hours exposure, the antitumor effect are measured by the SRB methodology: cells are fixed by adding 50 μl of cold 50% (wt/vol) trichloroacetic acid (TCA) and incubating for 60 minutes at 4° C. Plates are washed with deionized water and dried. One hundred μl of SRB solution (0.4% wt/vol in 1% acetic acid) is added to each microtiter well and incubated for 10 minutes at room temperature. Unbound SRB is removed by washing with 1% acetic acid. Plates are air dried and bound stain is solubilzed with Tris buffer. Optical densities are read on a automated spectrophotometric plate reader at a single wavelength of 490 nm.
# (§4) The values for mean +/− SD of data from triplicate wells are calculated. Some parameters for cellular responses can be calculated: GI=growth inhibition, TGI=total growth inhibition (cytostatic effect) and LC=cell killing (cytotoxic effect).
# LoVo-Dox = assay: as above; settings: Homo sapiens, 48 h; for GI50: read-out: LOVO-DOX GI50; for CC50: read-out: LOVO-DOX LC50; for IC (TGI): read-out: LOVO-DOX TGI
# Protocol: as §1, §2, §3, §4
# IGROV-ET = assay: as above; settings: Homo sapiens, 48 h; for GI50: read-out: IGROV-ET GI50; for CC50: read-out: IGROV-ET LC50; for IC (TGI): read-out: IGROV-ET TGI
# Protocol: as §1, §2, §3, §4
# HeLa = assay: as above; settings: Homo sapiens, HeLa, 48 h; for GI50: read-out: HELA GI50; for CC50: read-out: HELA LC50; for IC (TGI): read-out: HELA TGI
# Protocol: as §1, §2, §3, §4
# K-562 = assay: as above; settings: Homo sapiens, K562, 48 h; for GI50: read-out: K562 GI50; for CC50: read-out: K562 LC50; for IC (TGI): read-out: K562 TGI
# Protocol: as §1, §2, §3, §4
# HeLa-APL = assay: as above; settings: Homo sapiens, 48 h; for GI50: read-out: HELA-APL GI50; for CC50: read-out: HELA-APL LC50; for IC (TGI): read-out: HELA-APL TGI
# Protocol: as §1, §2, §3, §4
# PANC-1 = assay: as above; settings: Homo sapiens, PANC-1, 48 h; for GI50: read-out: PANC-1 GI50; for CC50: read-out: PANC-1 LC50; for IC (TGI): read-out: PANC-1 TGI
# Protocol: as §1, §2, §3, §4
# LNCaP = assay: as above; settings: Homo sapiens, LNCaP, 48 h; for GI50: read-out: LNCAP GI50; for CC50: read-out: LNCAP LC50; for IC (TGI): read-out: LNCAP TGI
# Protocol: as §1, §2, §3, §4
# IGROV-1 = assay: as above; settings: Homo sapiens, IGROV-1, 48 h; for GI50: read-out: IGROV GI50; for CC50: read-out: IGROV LC50; for IC (TGI): read-out: IGROV TGI
# Protocol: as §1, §2, §3, §4
# SK-MEL-28 = assay: as above; settings: Homo sapiens, SK-MEL-28, 48 h; for GI50: read-out: MEL-28 GI50; for CC50: read-out: MEL-28 LC50; for IC (TGI): read-out: MEL-28 TGI
# Protocol: as §1, §2, §3, §4
# A-549 = assay: cells; settings: Homo sapiens, A549, 48 h; for GI50: read-out: A549 GI50; for CC50: read-out: A549 LC50; for IC (TGI): read-out: A549 TGI
# Protocol: as §1, §2, §3, §4
# HT-29 = assay: cells; settings: Homo sapiens, HT-29, 48 h; for GI50: read-out: HT29 GI50; for CC50: read-out: HT29 LC50; for IC (TGI): read-out: HT29 TGI
# Protocol: as §1, §2, §3, §4
# LoVo = assay: cells; settings: Homo sapiens, LoVo, 48 h; for GI50: read-out: LOVO GI50; for CC50: read-out: LOVO LC50; for IC (TGI): read-out: LOVO TGI
# Protocol: as §1, §2, §3, §4
Structure (SMILES),GI50 (DU-145) [nM],CC50 (DU-145) [nM],IC (TGI) (DU-145) [nM],GI50 (LoVo-Dox) [nM],CC50 (LoVo-Dox) [nM],IC (TGI) (LoVo-Dox) [nM],GI50 (IGROV-ET) [nM],CC50 (IGROV-ET) [nM],IC (TGI) (IGROV-ET) [nM],GI50 (HeLa) [nM],CC50 (HeLa) [nM],IC (TGI) (HeLa) [nM],GI50 (K-562) [nM],CC50 (K-562) [nM],IC (TGI) (K-562) [nM],GI50 (HeLa-APL) [nM],CC50 (HeLa-APL) [nM],IC (TGI) (HeLa-APL) [nM],GI50 (PANC-1) [nM],CC50 (PANC-1) [nM],also measured
C=CCN1[C@@H]2c3c(cc(C)c(OC)c3O)C[C@H]1[C@H](C#N)N1C2[C@@H]2SC[C@]3(NCCc4c3[nH]c3ccccc43)C(=O)OC[C@H]1c1c3c(c(C)c(OC(C)=O)c12)OCO3 (stereo partly drawn) [compound 55],59,12700,247,333,12700,1570,248,4180,624,148,887,363,58.4,1040,272,111,915,323,148,12700,IC (TGI) (PANC-1): 1900 nM; GI50 (LNCaP): 17.1 nM; CC50 (LNCaP): 75.7 nM; IC (TGI) (LNCaP): 36 nM; GI50 (IGROV-1): 69.2 nM; CC50 (IGROV-1): 1580 nM; IC (TGI) (IGROV-1): 271 nM; GI50 (SK-MEL-28): 88.6 nM; CC50 (SK-MEL-28): 698 nM; IC (TGI) (SK-MEL-28): 265 nM; GI50 (A-549): 68.4 nM; CC50 (A-549): 1220 nM; IC (TGI) (A-549): 286 nM; GI50 (HT-29): 75.7 nM; CC50 (HT-29): 12700 nM; IC (TGI) (HT-29): 1810 nM; GI50 (LoVo): 151 nM; CC50 (LoVo): 837 nM; IC (TGI) (LoVo): 356 nM
COc1c(C)cc2c(c1O)[C@H]1N[C@@H](C2)[C@H](C#N)N2C1[C@@H]1SC[C@]3(NCCc4c3[nH]c3ccccc43)C(=O)OC[C@H]2c2c3c(c(C)c(OC(C)=O)c21)OCO3 (stereo partly drawn) [compound 59],4.09,1640,10.2,123,3930,709,4.48,3040,107,2.44,10.6,5.08,1.8,3290,9.83,3.32,59.2,7.69,4.76,3750,IC (TGI) (PANC-1): 42.3 nM; GI50 (LNCaP): 1.03 nM; CC50 (LNCaP): 6.43 nM; IC (TGI) (LNCaP): 2.67 nM; GI50 (IGROV-1): 3.01 nM; CC50 (IGROV-1): 110 nM; IC (TGI) (IGROV-1): 7.33 nM; GI50 (SK-MEL-28): 3.56 nM; CC50 (SK-MEL-28): 3040 nM; IC (TGI) (SK-MEL-28): 11 nM; GI50 (A-549): 15.9 nM; CC50 (A-549): 273 nM; IC (TGI) (A-549): 48.5 nM; GI50 (HT-29): 3.83 nM; CC50 (HT-29): 4280 nM; IC (TGI) (HT-29): 16 nM; GI50 (LoVo): 5.8 nM; CC50 (LoVo): 1190 nM; IC (TGI) (LoVo): 23.3 nM
